Experimental findings from US10889572B2, “Reactive oxygen species scavengers and use for treating diseases” (XW LABORATORIES INC., priority 2017, dated 2021) are described below.

Where a name gives a salt, the structure may show the parent alone.

The test system of the first assay is HT-1080 (fibrosarcoma) cells. In words: Primary screening by ferroptosis assay (Erastin-induced, cell viability, CellTiter-Glo). Format: cell-based. The following applies: HT-1080 cells, 30 hours, % remaining activity, read-out: EC50, Inhibition for Ferroptosis in HT-1080 Cell. As for the experimental part: Cell Lines and Media: HT-1080 (fibrosarcoma) cells were obtained from American Type Culture Collection. Cells were grown in EMEM media, 10% Heat-Inactivated FBS, and penicillin-streptomycin mix (Invitrogen). Cells were maintained at 37° C. and 5% CO2 in a tissue culture incubator.
Cell Viability Assay: Seed 10,000 cell/well of HT-1080 cells with 195 μL growth media in black and clear bottom 96-well plates (Cat #Corning 3904) and allow cells to adhere overnight. The next day, dilute test compound by 2-fold dilution into 12 points with medium containing 400 μM Erastin. Transfer 5 μL of compounds solution into growth medium in triplicated wells. 30 hours later, add Cell Titer-Glo® Luminescent cell viability assay reagent (Cat #, Promega G8081) to measure HT-1080 cell viability according to the manufacture protocol. Briefly, aspirate 100 μL medium, and add 50 μL CellTiter-Glo® Luminescent reagent to each well and incubated for 30 minutes at room temperature to stabilize the Luminescent signal. Seal the plates and centrifuged for 1 minute at 1,000 rpm to remove bubbles. Shake the plates for 1 minute on an orbital shaker. Read the plate to detect Luminescent signal with EnSpire Multimode Plate Reader (PerkinElmer). The remaining activity % is used to evaluate Erastin induced ferroptosis in HT-1080 cells and expressed as the following formula: % Remaining Activity−100×[(Sample−Backgroundavg)/(Vehicle−Background avg)]
Sample: Readout from the test compound
Vehicle: Readout from the vehicle sample
Background: Readout from the Erastin only treatment
Dose response curve is graphed by using the non-linear regression analysis (formula equation 201) in XLFit (Excel add-in software) for the average % remaining activity from triplicates, and the EC50 values is then calculated. In this anti-ferroptosis assay, ferrostatin-1, and XJB-5-131 are included as reference. The acceptance criteria were set based on historical result, mean±2.58*SD in logarithmic scale, meanwhile Z′>0.5.
Background: Cellular ATP, detected with luciferase, serves as a proxy for viable cell number.
As to `CC(C)C[C@@H](/C=C/[C@H](Cc1ccccc1)C(=O)N1CCC[C@H]1C(=O)N[C@H](C(=O)N[C@@H](CCCNC(=O)OCc1ccccc1)C(=O)NC1CC(C)(C)N([O])C(C)(C)C1)C(C)C)NC(=O)OC1CC(C)(C)N([O])C(C)(C)C1` [Example VIII, 1-Oxyl-2,2,6,6-tetramethylpiperidin-4-yl N-[(4S,5E,7S)-7-benzyl-8-[(2S)—2-{[(1S)—1-{[(1S)—4-{[(benzyloxy)carbonyl]amino}-1-[(1-oxyl-2,2,6,6-tetramethylpiperidin-4-yl)carbamoyl]butyl]carbamoyl}-2-methylpropyl]carbamoyl}pyrrolidin-1-yl]-2-methyl-8-oxooct-5-en-4-yl]carbamate], the EC50 was 266 nM.

For `CC(C)C[C@@H](/C=C/[C@H](Cc1ccccc1)C(=O)N1CCC[C@H]1C(=O)N[C@@H](CCCNC(=O)OC(C)(C)C)C(=O)NC1CC(C)(C)N([O])C(C)(C)C1)NC(=O)OC(C)(C)C` [Example XX, tert-Butyl N-(4-{[(2S)-1-[(2R,3E,5S)-2-benzyl-5-{[(tert-butoxy)carbonyl]amino}-7-methyloct-3-enoyl]pyrrolidin-2-yl]formamido}-4-[(1-oxyl-2,2,6,6-tetramethylpiperidin-4-yl)carbamoyl]butyl)carbamate], the EC50 turned out to be 532 nM.

Still in this assay, the particulars now being: Homo sapiens, HT-1080, 30 h, HT-1080 cells, % remaining activity, read-out: EC50, Inhibition for Ferroptosis in HT-1080 Cell.
As to `CC(C)C[C@@H](/C=C/C(Cc1ccccc1)C(=O)N1CCC[C@H]1C(=O)N[C@H](C(=O)N[C@@H](CCCNC(=O)OCc1ccccc1)C(=O)NC1CC(C)(C)N(O)C(C)(C)C1)C1CC1)NC(=O)OC(C)(C)C` (stereo in doubt) [Example XII, Benzyl N-[(4S)-4-[(2S)—2-{[(2S)-1-[(2R,3E,5S)-2-benzyl-5-{[(tert-butoxy)carbonyl]amino}-7-methyloct-3-enoyl]pyrrolidin-2-yl]formamido}-2-cyclopropylacetamido]-4-[(1-hydroxy-2,2,6,6-tetramethylpiperidin-4-yl)carbamoyl]butyl]carbamate], the EC50 is 481 nM. For the compound `CC(C)C[C@@H](/C=C/[C@H](Cc1ccccc1)C(=O)N1CCCC1C(=O)N[C@@H](CCCCNC(=O)OC1CC(C)(C)N(O)C(C)(C)C1)C(=O)OC1CCCCC1)NC(=O)OC(C)(C)C` (stereo in doubt) [Example XXXXVI, (S)—Cyclohexyl 2-((R)-1-((2S,5S,E)-2-benzyl-5-((tert-butoxycarbonyl)amino)-7-methyloct-3-enoyl)pyrrolidine-2-carboxamido)-6-((((1-hydroxy-2,2,6,6-tetramethylpiperidin-4-yl)oxy)carbonyl)amino)hexanoate], the EC50 was 66.3 nM.

In the case of `CC(C)C[C@@H](/C=C/[C@H](Cc1ccccc1)C(=O)N1CCC[C@@H]1C(=O)NC1CC(C)(C)N(O)C(C)(C)C1)NC(=O)OC(C)(C)C` [Example VI, tert-Butyl N-[(4S,5E,7S)-7-benzyl-8-[(2R)-2-[(1-hydroxy-2,2,6,6-tetramethylpiperidin-4-yl)carbamoyl]pyrrolidin-1-yl]-2-methyl-8-oxooct-5-en-4-yl]carbamate], the EC50 is 1020 nM. Consider `CC(C)C[C@@H](/C=C/[C@H](Cc1ccccc1)C(=O)N1CCC[C@H]1C(=O)N1CCC[C@H]1C(=O)N[C@@H](CCCNC(=O)OCc1ccccc1)C(=O)NC1CC(C)(C)N(O)C(C)(C)C1)NC(=O)OC(C)(C)C` [Example XI, Benzyl N-[(4S)-4-1-{[(2S)-1-[(2S)-1-[(2R,3E,5S)-2-benzyl-5-{[(tert-butoxy)carbonyl]amino}-7-methyloct-3-enoyl]pyrrolidine-2-carbonyl]pyrrolidin-2-yl]formamido}-4-[(1-hydroxy-2,2,6,6-tetramethylpiperidin-4-yl)carbamoyl]butyl]carbamate], for which the concentration giving a half-maximal response (EC50) amounted to 526 nM. On the same count and under the same terms, the value for `CC(C)C[C@H](N)/C=C/[C@H](Cc1ccccc1)C(=O)N1CCC[C@H]1C(=O)N[C@H](CCCNC(=O)OCc1ccccc1)C(=O)NC1CC(C)(C)N(O)C(C)(C)C1` [Example XIII, Benzyl N-[(4R)—4-{[(2S)-1-[(2S,3E,5S)-5-amino-2-benzyl-7-methyloct-3-enoyl]pyrrolidin-2-yl]formamido}-4-[(1-hydroxy-2,2,6,6-tetramethyl-piperidin-4-yl)carbamoyl]butyl]carbamate dihydrochloride] was 262 nM. On the same count and under the same terms, the value for `CC(C)C[C@@H](/C=C/[C@H](Cc1ccccc1)C(=O)N1CCC[C@H]1C(=O)N[C@@H](C)C(=O)N[C@@H](CCCNC(=O)OCc1ccccc1)C(=O)NC1CC(C)(C)N(O)C(C)(C)C1)NC(=O)OC(C)(C)C` [Example XIV, Benzyl N-[(4S)-4-[(2S)—2-{[(2S)-1-[(2S,3E,5S)-2-benzyl-5-{[(tert-butoxy)carbonyl]amino}-7-methyloct-3-enoyl]pyrrolidin-2-yl]formamido}propanamido]-4-[(1-hydroxy-2,2,6,6-tetramethylpiperidin-4-yl)carbamoyl]butyl]carbamate] was 515 nM. On to `CC(C)C[C@@H](/C=C/[C@H](Cc1ccccc1)C(=O)N1CCC[C@H]1C(=O)N[C@@H](Cc1ccc(O)cc1)C(=O)NC1CC(C)(C)N(O)C(C)(C)C1)NC(=O)OC(C)(C)C` [Example XVI, tert-Butyl N-[(4S,5E,7S)-7-benzyl-8-[(2S)—2-{[(1S)-1-[(1-hydroxy-2,2,6,6-tetramethylpiperidin-4-yl)carbamoyl]-2-(4-hydroxyphenyl)ethyl]carbamoyl}pyrrolidin-1-yl]-2-methyl-8-oxooct-5-en-4-yl]carbamate], for which the EC50 is 536 nM. Same read-out and setting: the figure for `CC(C)C[C@@H](/C=C/[C@H](Cc1ccccc1)C(=O)N1CCC[C@@H]1C(=O)N[C@@H](CCCNC(=O)OCc1ccccc1)C(=O)NC1CC(C)(C)N(O)C(C)(C)C1)NC(=O)OC(C)(C)C` [Example XVII, Benzyl N-[(4S)—4-{[(2R)-1-[(2S,3E,5S)-2-benzyl-5-{[(tert-butoxy)carbonyl]amino}-7-methyloct-3-enoyl]pyrrolidin-2-yl]formamido}-4-[(1-hydroxy-2,2,6,6-tetramethylpiperidin-4-yl)carbamoyl]butyl]carbamate] is 284 nM; for `COC(=O)[C@H](CCCNC(=O)OC1CC(C)(C)N(O)C(C)(C)C1)NC(=O)[C@@H]1CCCN1C(=O)[C@H](/C=C/[C@H](CC(C)C)NC(=O)OC(C)(C)C)Cc1ccccc1` [Example XVIII] it is 86 nM; for `Cc1cc(O)cc(C)c1CNC(=O)[C@H](CCCNC(=O)OCc1ccccc1)NC(=O)[C@@H]1CCCN1C(=O)[C@H](/C=C/[C@H](CC(C)C)NC(=O)OC(C)(C)C)Cc1ccccc1` [Example XXIV, Benzyl N-[(4S)—4-{[(2S)-1-[(2S,3E,5S)-2-benzyl-5-{ [(tert-butoxy)carbonyl]amino}-7-methyloct-3-enoyl]pyrrolidin-2-yl]formamido}-4-{[(4-hydroxy-2,6-dimethylphenyl)methyl]carbamoyl}butyl]carbamate] it is over 4000 nM. On to `CC(C)C[C@@H](/C=C/[C@H](Cc1ccccc1)C(=O)N1CCC[C@H]1C(=O)N[C@H](C(=O)N[C@@H](CCCNC(=O)OCc1ccccc1)C(=O)NC1CC(C)(C)N(O)C(C)(C)C1)C(C)C)NC(=O)OC1CC(C)(C)N(O)C(C)(C)C1` [Example XXV, 1-Hydroxy-2,2,6,6-tetramethylpiperidin-4-yl N-[(4S,5E,7S)-7-benzyl-8-[(2S)—2-{[(1S)—1-{[(1S)—4-{[(benzyloxy)carbonyl]amino}-1-[(1-hydroxy-2,2,6,6-tetramethylpiperidin-4-yl)carbamoyl]butyl]carbamoyl}-2-methylpropyl]carbamoyl}pyrrolidin-1-yl]-2-methyl-8-oxooct-5-en-4-yl]carbamate dihydrochloride], for which the concentration for a half-maximal effect (EC50) worked out at 255 nM.

Still in this assay, the particulars now being: Homo sapiens, HT-1080 cells, 30 hours, % remaining activity, read-out: EC50, Inhibition for Ferroptosis in HT-1080 Cell.
With `CC(C)C[C@H](N)/C=C/[C@H](Cc1ccccc1)C(=O)N1CCC[C@H]1C(=O)N[C@H](C(=O)N[C@@H](CCCNC(=O)OCc1ccccc1)C(=O)NC1CC(C)(C)N(O)C(C)(C)C1)C(C)C` [Example XV, Benzyl N-[(4S)-4-[(2S)—2-{[(2S)-1-[(2S,3E,5S)-5-amino-2-benzyl-7-methyloct-3-enoyl]pyrrolidin-2-yl]formamido}-3-methylbutanamido]-4-[(1-hydroxy-2,2,6,6-tetramethylpiperidin-4-yl)carbamoyl]butyl]carbamate trifluoroacetic acid salt], the concentration for a half-maximal effect (EC50) amounted to 2230 nM. The same measure, in the same setting: the figure for `CC(C)C[C@@H](/C=C/[C@H](Cc1ccccc1)C(=O)N1CCC[C@@H]1C(=O)N[C@@H](CCCNC(=O)OC(C)(C)C)C(=O)NC1CC(C)(C)N(O)C(C)(C)C1)NC(=O)OC(C)(C)C` [Example XXI, tert-Butyl N-[(4S,5E,7S)-7-benzyl-8-[(2R)—2-{[(1S)—4-{[(tert-butoxy)carbonyl]amino}-1-[(1-hydroxy-2,2,6,6-tetramethylpiperidin-4-yl)carbamoyl]butyl]carbamoyl}pyrrolidin-1-yl]-2-methyl-8-oxooct-5-en-4-yl]carbamate] is 257 nM.

As a reminder, the EC50 is the midpoint of the concentration-response curve.
